# According to PubChem BioAssay AID588552 (Johns Hopkins Ion Channel Center, 2011):
# The source made the active and inactive calls.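 How the source made its calls: active means compounds whose IC50 for blocking RGS4-driven GTP breakdown by the G-protein falls below a set limit; inactive means IC50 above a set limit.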
# Target: Regulator of G-protein signaling 4 (Rattus norvegicus) (UniProt P49799)
# Assay: inhibitors of RGS4 GAP activity on Galphai1, confirmation, biochemical, rat RGS4, steady-state, receptor-independent, malachite green (AID 588552)
# Settings: RGS4-stimulated Galphai1 GTPase, malachite green phosphate absorbance
# Sequence of Regulator of G-protein signaling 4 (Rattus norvegicus) (P49799 whole entry, looked up): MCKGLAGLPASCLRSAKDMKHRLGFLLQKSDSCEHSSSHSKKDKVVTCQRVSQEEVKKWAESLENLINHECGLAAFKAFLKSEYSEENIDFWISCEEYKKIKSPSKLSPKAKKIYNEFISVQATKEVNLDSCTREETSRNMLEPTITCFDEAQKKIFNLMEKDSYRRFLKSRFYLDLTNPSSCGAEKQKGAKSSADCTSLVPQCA
row,SMILES,IC50
1,CCOCCCNC(=O)/C(C#N)=C\c1ccc(Cl)c([N+](=O)[O-])c1,> 110 µM (inactive)
2,O=C/C=C/c1c(-c2ccccc2)cc2oc3ccccc3cc1-2,> 110 µM (inactive)
3,COc1ccc(-c2csc(NC3OC(=O)c4c3ccc(OC)c4OC)n2)cc1OC (stereo not drawn),> 110 µM (inactive)
4,O=C(CCNc1ccc(F)cc1)c1ccco1,> 110 µM (inactive)
5,O=C1/C(=C/c2ccncc2)CCC/C1=C\c1ccncc1,9.9 µM
6,COc1cc2c(cc1O)C(SC)=NC(C)(C)C2,31.8 µM
7,N[C@@H](Cc1cc(Br)c(O)c(Br)c1)C(=O)O,> 110 µM (inactive)
8,O=C1/C(=C\c2ccc(Cl)c(Cl)c2)N2CCC1CC2,> 110 µM (inactive)
9,N#C/C(=C/c1ccc(Cl)c([N+](=O)[O-])c1)c1ccccn1,> 110 µM (inactive)
10,O=C(O)c1ccc(/C=C/C(=O)c2ccc3c(c2)OCCCO3)cc1,34.7 µM
11,Cc1ccc(CNC(=O)c2cn(C3CCCCC3)c(=O)c3c2c2ccccc2n3C)o1,> 110 µM (inactive)
12,COc1cccc(/C=C/C(=O)c2c(O)cc(C)oc2=O)c1O,> 110 µM (inactive)
13,CN1CCc2cc(O)cc3c2[C@H]1Cc1ccc(O)c(O)c1-3,9.7 µM
14,CN(C)c1ccc(C(C[N+](=O)[O-])c2c(N)n(C)c(=O)n(C)c2=O)c(F)c1C#N (stereo not drawn),> 110 µM (inactive)
15,Cc1ccc(C(C2=C(O)CC(C)(C)CC2=O)C2C(=O)CC(C)(C)CC2=O)o1 (stereo not drawn),> 110 µM (inactive)
16,CC1=NN(c2ccc(C(=O)O)cc2)C(=O)/C1=C\c1ccc(OC(=O)c2cccs2)cc1,11.8 µM
17,COC(=O)CSc1[nH]c2cc(C)ccc2c1[N+](=O)[O-],> 110 µM (inactive)
18,O=C(/C=C/c1ccc([N+](=O)[O-])cc1)c1ccco1,> 110 µM (inactive)
19,CN1C/C(=C/c2ccncc2)C(=O)/C(=C/c2ccncc2)C1,37.1 µM
20,CN1C(=O)S/C(=C\c2ccccc2OCc2ccc(C(=O)O)cc2)C1=O,76.7 µM

row,SMILES,IC50
1,CC1=NOC(=O)/C1=C/c1ccc(O)cc1,> 110 µM (inactive)
2,Cc1cc(-c2n[nH]c(=S)n2/N=C/C(Br)=C/c2ccccc2)n[nH]1,4 µM
3,Oc1c(Cl)cc(Cl)c2c1NCCC2,37.8 µM
4,CC(C)(C)c1ccc(Cn2nnc3c(=O)[nH]c(C4CCN(C(=O)Cc5cccs5)CC4)nc32)cc1,> 110 µM (inactive)
5,Cc1c(NC(=O)c2coc(=O)c(Br)c2)c(=O)n(-c2ccccc2)n1C,> 110 µM (inactive)
6,Cc1ccc(C(C2C(=O)CC(C)(C)CC2=O)C2C(=O)CC(C)(C)CC2=O)s1,91.4 µM
7,Cc1nc2c(=O)n(C)c(=O)n(C)c2nc1Cl,> 110 µM (inactive)
8,O=C1C=C(NC2=CC3OC(c4ccccc4)OCC3OC2=O)CCC1 (stereo not drawn),34 µM
9,CN(C)C(=O)COc1ccc(C(=O)/C=C/c2cccnc2)cc1,59.4 µM
10,O=C1/C(=C\c2ccc(Cl)cc2Cl)N2CCC1CC2,> 110 µM (inactive)
11,O=[N+]([O-])c1ccc(O)c(/C=N/NC(=S)Nc2ccc(Cl)cc2Cl)c1,> 110 µM (inactive)
12,O=C(O)c1ccc(/C=C2\COc3ccccc3C2=O)cc1,5.1 µM
13,COc1ccc2cc(C3C(C#N)=C(N)OC(C)=C3C(C)=O)c(Cl)nc2c1 (stereo not drawn),> 110 µM (inactive)
14,NC(=O)N/N=C/c1c(Sc2nnnn2-c2ccccc2)nc2ccccn2c1=O,55.5 µM
15,O=C(/C=C/c1ccncc1)c1ccc2c(c1)OCCO2,31.1 µM
16,COc1ccc(NC(=O)/C(Cl)=C(/Cl)S(=O)Cc2ccccc2)cn1 (stereo not drawn),1 µM
17,Cc1ccccc1OCc1nnc(SCC(=O)Nc2ccc3c(c2)oc2ccccc23)n1C,> 110 µM (inactive)
18,CCOC(=O)C1=C(O)/C(=C\c2cccc(OC)c2)N=C1C,> 110 µM (inactive)
19,Cn1c(OCc2ccco2)nc2c1c(=O)n(Cc1ccc(Cl)c(Cl)c1)c(=O)n2C,> 110 µM (inactive)
20,CCOC(=O)/C=C/C(=O)OCC(=O)N1CCN(C(=O)c2ccco2)CC1,> 110 µM (inactive)

row,SMILES,IC50
1,CN1C(=O)/C(=C\c2ccc(Br)s2)C(=O)NC1=S,14.8 µM
2,COc1ccc(OC)c(N2C(=O)NC(=O)/C(=C/c3ccc([N+](=O)[O-])s3)C2=O)c1,18 µM
3,Cc1csc(NC(=O)COCC(=O)O)c1-c1nc2ccccc2s1,> 110 µM (inactive)
4,COc1ccc(NC(=O)/C(C#N)=C\c2ccc(Sc3nncn3C)c([N+](=O)[O-])c2)cc1,> 110 µM (inactive)
5,Cc1cc2nc(CS)[nH]c2cc1C,> 110 µM (inactive)
6,CCOCCCNC(=O)/C(C#N)=C\c1ccc([N+](=O)[O-])o1,10.7 µM
7,O=C(O)c1ccc2c(c1)C(=O)N(c1cccc(C(=O)/C=C/c3ccccc3)c1)C2=O,23.2 µM
8,O=C1N=c2ccccc2=C1c1c(O)n(-c2cccc(F)c2)[nH]c1=O,55.8 µM
9,COc1ccc(C(C[N+](=O)[O-])c2c(-c3ccccc3)cc3ccccn23)cc1OC (stereo not drawn),> 110 µM (inactive)
10,CC(C)OP(=O)(OC(C)C)/C(C=O)=N\Nc1ccc([N+](=O)[O-])cc1,> 110 µM (inactive)
11,O=C1NC(=S)N(c2ccccc2F)C(=O)/C1=C\c1cccs1,35.6 µM
12,CCCN1CCc2cc(O)cc3c2[C@H]1Cc1ccc(O)c(O)c1-3,11 µM
13,Cc1cccc(N2C(=O)/C(=C/c3ccc(C(=O)O)cc3)c3ccccc3C2=O)c1,31.8 µM
14,CN(C)c1oc(-c2ccccc2[N+](=O)[O-])nc1C#N,18.6 µM
15,Cc1ccc(/C=C/C(=O)N2CC(C)CC(C)C2)o1 (stereo not drawn),16.7 µM
16,O=C(N/N=C/c1cc([N+](=O)[O-])ccc1O)NC12CC3CC(CC(C3)C1)C2,> 110 µM (inactive)
17,COC(=O)CSc1[nH]c2ccccc2c1[N+](=O)[O-],55 µM
18,Cc1ccc(/C=C2\C(=O)NC(=S)N(c3ccc(F)cc3)C2=O)s1,11 µM
